How the values were obtained:
APP and PS1 = assay: Photobleach dequenching FRET assay between APP and PS1; type: cell-based, Chinese hamster
Method: Fluorescence Resonance Energy Transfer (FRET) measurements were made using a BioRad1024 confocal microscope mounted on a Nikon Eclipse TE300 inverted Microscope. A krypton-argon laser was used to excite FITC and Cy3 (excitation wavelengths at 488 and 568 nm, respectively). FRET was measured using a method developed for laser scanning confocal microscopy (McLean, P. J. et al., J Biol Chem 275: 8812-8816, 2000; Kinoshita, A. et al., J Neurosci 21: 8354-8361, 2001). The amount of FRET was calculated as a percent increase in donor (FITC) fluorescence intensity after photobleaching the acceptor (Cy3) in a small part of the cell (˜8×8 μm). This ratio was then normalized to the percent change in FITC fluorescence intensity in a non-bleached area of the cell. The percent change in fluorescence intensity was compared to the null hypothesis value of 1.0 by one-group t-tests.
FRET arises when donor and acceptor molecules are <10 nm apart. […] A small area within the cell was photobleached at 568 nm (acceptor only), and FITC fluorescence intensity (at 488 nm) was measured before and after photobleaching.
Treatment with γ-secretase inhibitors (or Asp mutations in PS1) prevents processing of substrates at γ-secretase site. […] This was also true for the D257A PS1 mutation; we observed 25.9±11% (n=8, P<0.05) increase in FITC-fluorescence intensity, compared to a non-FRET control.

[1] = tested on: APP and PS1 (PS1/γ-secretase complex); assay: FLIM assay for PS1 loop-APP C-terminus proximity in CHO cells treated with γ-secretase inhibitors; type: cell-based, Chinese hamster; conditions: WT PS1 CHO cells; donor PS1 loop-FITC, acceptor APP770-CY3; 4 h with DAPT 500 nM or WPE-III-31C 1 μM; non-FRET control 2600 ± 110, untreated 2290 ± 216
Method: (§1) Chinese hamster ovary (CHO) cells stably transfected with APP770 and either wild type PS1 (wt PS1) or Aspartate mutant PS1 (D257A PS1) were grown in OPTI-MEM with 5% fetal bovine serum and appropriate antibiotics (Puromycin or Zeocin, respectively, (Berezovska et al., 2000)).
Cells were fixed and immunostained 24 hrs posttransfection as described previously (Jack, C. et al., Brain Res Mol Brain Res 87: 166-174, 2001). We used a polyclonal C8 antibody (Selkoe, D. et al., Proc Natl Acad Sci USA 85: 7341-7345, 1988) to detect the C-terminus of APP. A monoclonal antibody to the loop region of PS1 (Chemicon, Temecula, Calif.) was used to identify the γ-secretase complex. PS1 N-terminal X81 antibody was a gift from D. Selkoe (Brigham and Women's Hospital, Boston, Mass.); PS1 C-terminal antibody was purchased from R&D Systems, Inc., Minneapolis, Minn.). For FRET/FLIM studies we chose Cy3-labeled goat anti-rabbit as the acceptor fluorophore, and FITC-labeled goat anti-mouse as the donor fluorophore.
Fluorescence Lifetime Imaging Microscopy (FLIM) relies on the observation that fluorescence lifetimes (the time of fluorophore emission after brief excitation, measured in picoseconds) are shorter in the presence of a FRET acceptor. […] We used a high-speed Hamamatsu detector and hardware/software from Becker and Hickl (Berlin, Germany) to measure fluorescence lifetimes on a pixel-by-pixel basis. […]
The following controls were used to establish and validate the FLIM assay: (1) As a negative control, FITC lifetime was measured in the absence of the acceptor. […] (2) As a positive control, FITC lifetime was measured in the presence of an acceptor. […] By contrast, the FITC fluorescence lifetime (FLIM image) within the area where the acceptor was photobleached reverts to a longer lifetime (color-coded as blue), identical to the lifetime of FITC in the absence of an acceptor (as in the negative control, FIG. 7A). […]
If there was no interaction, lifetimes on the order of ˜2600 psec were observed. If FRET was detected, a population with a statistically shorter lifetime (<˜2400 psec) was observed.

[2] = tested on: full-length APP, BACE1 and APP CTFs; assay: Western blot of full-length APP, BACE1 and APP CTFs in N2a cells transfected with human APP751; type: cell-based, mouse; conditions: 1 μM DAPT
Method: For the Western Blot analysis, the cells were lysed in 1% Triton X-100 and electrophoresed in 10-20% SDS-polyacrylamide Tris-Glycine gels. The immunoblotting was performed using the APP C8 antibody (Selkoe, D. J. et al., Proc. Natl. Acad. Sci. USA 85, 7341-7345, 1988), mouse actin (Sigma-Aldrich) or rabbit BACE1 (Calbiochem), followed by detection with ECL reagent (Perkin Elmer, Boston, Mass.). Bands on films were quantitated (Odyssey software, LI-COR, Nebraska) and the values normalized to actin expression.
We further examined whether NSAIDs lead to a decrease in γ-secretase activity. Inhibition of γ-secretase activity leads to accumulation of C99 and C83 (APP CTFs) and decreased release of AICD. Mouse N2a neuroblastoma cells were transfected with human APP751, and were treated with different NSAIDs and a Western blot was performed for full-length APP and APP CTFs (FIG. 16A). […] Next we asked whether NSAIDs alter generation of AICD and examined the effects of NSAIDs on the ability of APP-Gal4 to be cleaved by γ-secretase, releasing the Gal4-AICD fragment which activates a Gal4-dependent, artificially expressed, luciferase plasmid (Cao, X. et al., Science 293: 115-120, 2001). […]

Aβ secretion = assay: Aβ production after DAPT treatment (sister cultures); type: cell-based, Chinese hamster
Method: as §1
We investigated whether APP and PS1 interactions would still be observed if γ-secretase function was inhibited.

## C[C@H](NC(=O)Cc1cc(F)cc(F)c1)C(=O)N[C@H](C(=O)OC(C)(C)C)c1ccccc1 [DAPT]
APP and PS1; DAPT-treated cells
  association of APP with PS1 (photobleach FRET, FIG. 10): does not prevent close association of APP with PS1
APP and PS1; wt PS1/APP770 cells, DAPT treatment, untreated 11.6±3%
  FRET: percent increase in FITC fluorescence intensity after photobleaching Cy3: 19.8±2%
[1]
  FITC Lifetime (psec) mean ± SD: 2416 ± 118 (n = 9) psec
[2]
  APP CTFs (Western blot): accumulation of APP CTFs
Aβ secretion
  Aβ secretion: significant decrease
